Assay results as given in patent publication US20030229451A1, “Methods and systems for analyzing complex biological systems” (priority 2001, published 2003).

Tested on: Saccharomyces cerevisiae wild type strain BY4743
Experiment: AF1 metabolite analysis (GC-MS, LC-MS) of yeast cells treated with antifungal drugs
Format: cell-based
Conditions: for # Compounds perturbed: 2x MIC, two hours; for Fold Change of NacetylDglucosamine: metabolite NacetylDglucosamine; for Fold Change of NacetylLglutamate: metabolite NacetylLglutamate; for Fold Change of NacetylLornithine: metabolite NacetylLornithine; for Fold Change of nicotinic acid: metabolite nicotinic acid; for Fold Change of nopaline: metabolite nopaline; for Fold Change of oleic acid: metabolite oleic acid; for Fold Change of ornithine: metabolite ornithine; for Fold Change of phenylalanine: metabolite phenylalanine; for Fold Change of phosphoenolpyruvate: metabolite phosphoenolpyruvate; for Fold Change of pipecolic acid: metabolite pipecolic acid; for Fold Change of proline: metabolite proline; for Fold Change of pyridoxine: metabolite pyridoxine; for Fold Change of selenoDLmethionine: metabolite selenoDLmethionine; for Fold Change of serine: metabolite serine; for Fold Change of sugar-phosphate: metabolite sugar-phosphate; for Fold Change of tetradecanoic acid: metabolite tetradecanoic acid; for Fold Change of threonine/homoserin: metabolite threonine/homoserin; for Fold Change of thymine: metabolite thymine; for Fold Change of tryptophan: metabolite tryptophan; for Fold Change of tyrosine: metabolite tyrosine; for Fold Change of urocanic acid: metabolite urocanic acid; for Fold Change of valine: metabolite valine; for Fold Change of zeatin: metabolite zeatin

CC[C@@H]([C@H](C)O)n1ncn(-c2ccc(N3CCN(c4ccc(OC[C@@H]5CO[C@@](Cn6cncn6)(c6ccc(F)cc6F)C5)cc4)CC3)cc2)c1=O [Posaconazole]
# Compounds perturbed (P < 0.05): 3 | # Compounds perturbed (P < 0.1): 4 | Fold Change (metabolite 2-ketobutyric acid, platform nLC): −0.9992 | Fold Change (metabolite 2-ketoglutaric, platform nLC): 11.33 | Fold Change (metabolite 3-indolylacetonitri, platform nLC): −0.9998 | Fold Change (metabolite 4-aminobenzoic acid, platform pLC): 0 | Fold Change (metabolite 4-methylcatechol, platform nLC): 0 | Fold Change (metabolite 4-methylcatechol, platform pLC): 0 | Fold Change (metabolite 4ambutyrate/dimglyc, platform pLC): 31.37 | Fold Change (metabolite 4aminobutyrate/dimg, platform nLC): −0.008939 | Fold Change (metabolite 5hydroxyLtryptophan, platform nLC): 0 | Fold Change (metabolite 5hydroxyLtryptophan, platform pLC): 0 | Fold Change (metabolite 6-benzylaminopurine, platform nLC): 0 | Fold Change (metabolite 6benzylaminopurine, platform pLC): 0 | Fold Change (metabolite DLaminoadipic acid, platform nLC): −0.9935 | Fold Change of NacetylDglucosamine (platform nLC): 0 | Fold Change of NacetylDglucosamine (platform pLC): 0 | Fold Change of NacetylLglutamate (platform nLC): −0.07165 | Fold Change of NacetylLglutamate (platform pLC): 0 | Fold Change of NacetylLornithine (platform nLC): 0 | Fold Change of NacetylLornithine (platform pLC): 0.1338 | Fold Change of TMS mevalonic acid lactone (metabolite TMS mevalonic acid lactone, platform GC): −0.3118 | Fold Change (metabolite abscisic acid, platform nLC): 0 | Fold Change (metabolite abscisic acid, platform pLC): 0 | Fold Change (metabolite aconitic acid, platform nLC): 1.874 | Fold Change (metabolite adenine, platform nLC): 0 | Fold Change (metabolite adenine, platform pLC): −0.0145 | Fold Change (metabolite adenosine, platform nLC): 128.3 | Fold Change (metabolite adenosine, platform pLC): 0 | Fold Change (metabolite alanine/sarcosine, platform pLC): 0.1013 | Fold Change (metabolite alanine, platform GC): 1.035 | Fold Change (metabolite alanine, platform nLC): 0.1091 | Fold Change (metabolite allantoic acid, platform nLC): 0.3321 | Fold Change (metabolite allantoic acid, platform pLC): 0 | Fold Change (metabolite allantoin, platform nLC): 5.97 | Fold Change (metabolite anthranillic acid, platform nLC): 0 | Fold Change (metabolite anthranillic acid, platform pLC): 0 | Fold Change (metabolite arginine, platform nLC): 0.1707 | Fold Change (metabolite arginine, platform pLC): 0.03383 | Fold Change (metabolite argininosuccinate, platform nLC): 318.3 | Fold Change (metabolite argininosuccinate, platform pLC): 0 | Fold Change (metabolite asparagine, platform GC): 0.145 | Fold Change (metabolite asparagine, platform nLC): 0.006865 | Fold Change (metabolite asparagine, platform pLC): 0.4302 | Fold Change (metabolite aspartic acid, platform GC): −0.071 | Fold Change (metabolite aspartic acid, platform pLC): 0.3626 | Fold Change (metabolite aspartic, platform nLC): 0.305 | Fold Change (metabolite benzoic acid, platform nLC): 0 | Fold Change (metabolite biotin, platform nLC): −0.9992 | Fold Change (metabolite biotin, platform pLC): 0 | Fold Change (metabolite caffeic acid, platform nLC): −0.49 | Fold Change (metabolite caffeine, platform pLC): 0 | Fold Change (metabolite campesterol, platform GC): 0 | Fold Change (metabolite catechol, platform nLC): 0 | Fold Change (metabolite cinnamic acid, platform nLC): 0 | Fold Change (metabolite citric acid TME, platform pLC): 0 | Fold Change (metabolite citricanoic/itaconi, platform nLC): 0 | Fold Change (metabolite citrulline, platform nLC): 1160 | Fold Change (metabolite citrulline, platform pLC): 0.1011 | Fold Change (metabolite coumaric acid, platform nLC): 0 | Fold Change (metabolite cytidine, platform nLC): −0.9986 | Fold Change (metabolite cytidine, platform pLC): 0 | Fold Change (metabolite cytosine, platform nLC): 0 | Fold Change (metabolite cytosine, platform pLC): 1135 | Fold Change (metabolite decanoic acid, platform nLC): 0.1263 | Fold Change (metabolite desmosterol, platform GC): 0 | Fold Change (metabolite diaminopimelic acid, platform nLC): 0 | Fold Change (metabolite diaminopimelic acid, platform pLC): 0 | Fold Change (metabolite dihydrofolic acid, platform nLC): 0 | Fold Change (metabolite dihydrofolic acid, platform pLC): 0 | Fold Change (metabolite dipicolinic acid, platform pLC): 0 | Fold Change (metabolite disaccaride1, platform GC): 0.04733 | Fold Change (metabolite disaccaride2, platform GC): 0.313 | Fold Change (metabolite disaccaride3, platform GC): 0.3407 | Fold Change of mevalonic acid lactone (metabolite mevalonic acid lactone, platform GC): 0.5555 | Fold Change of mevalonic lactone (metabolite mevalonic lactone, platform pLC): −0.08368 | Fold Change of niacinamide (metabolite niacinamide, platform pLC): 0 | Fold Change of nicotinic acid (platform nLC): 1.421 | Fold Change of nicotinic acid (platform pLC): −0.8142 | Fold Change of nopaline (platform nLC): 0.7554 | Fold Change of nopaline (platform pLC): 0 | Fold Change of octadecanoic acid (metabolite octadecanoic acid, platform GC): 0.321 | Fold Change of oleic acid (platform GC): −0.5057 | Fold Change of oleic acid (platform nLC): 0.5606 | Fold Change of ornithine2 (metabolite ornithine2, platform GC): −0.1383 | Fold Change of ornithine3 (metabolite ornithine3, platform GC): 0.041 | Fold Change of ornithine (platform nLC): 2.314 | Fold Change of ornithine (platform pLC): 0.4314 | Fold Change of orotic acid (metabolite orotic acid, platform nLC): 0 | Fold Change of palmiteliadic acid (metabolite palmiteliadic acid, platform GC): −0.2453 | Fold Change of palmitic acid (metabolite palmitic acid, platform nLC): 0.1518 | Fold Change of phenylalanine (platform GC): 0.06069 | Fold Change of phenylalanine (platform nLC): −0.03702 | Fold Change of phenylalanine (platform pLC): −0.1585 | Fold Change of phenylpyruvic acid (metabolite phenylpyruvic acid, platform nLC): 0 | Fold Change of phosphate (metabolite phosphate, platform GC): −0.1833 | Fold Change of phosphoenolpyruvate (platform nLC): 0 | Fold Change of phosphoenolpyruvate (platform pLC): 0 | Fold Change of pinitol (metabolite pinitol, platform nLC): 0 | Fold Change of pipecolic acid (platform nLC): 0.1806 | Fold Change of pipecolic acid (platform pLC): 0.3444 | Fold Change of porphobilinogen (metabolite porphobilinogen, platform nLC): 0 | Fold Change of progesterone (metabolite progesterone, platform pLC): 0 | Fold Change of proline (platform nLC): 0.3147 | Fold Change of proline (platform pLC): 0.3157 | Fold Change of pyridoxine (platform nLC): −0.1015 | Fold Change of pyridoxine (platform pLC): −0.239 | Fold Change of pyrimidine (metabolite pyrimidine, platform GC): 0.159 | Fold Change of retinoic acid (metabolite retinoic acid, platform nLC): 0 | Fold Change of riboflavin (metabolite riboflavin, platform pLC): 0 | Fold Change of salicylic/HObenzoic (metabolite salicylic/HObenzoic, platform nLC): 0 | Fold Change of selenoDLmethionine (platform nLC): −0.6722 | Fold Change of selenoDLmethionine (platform pLC): −0.7083 | Fold Change of serine (platform nLC): 0.152 | Fold Change of serine (platform pLC): 0.2417 | Fold Change of shikimic acid (metabolite shikimic acid, platform nLC): 0 | Fold Change of sinapinic acid (metabolite sinapinic acid, platform nLC): 0 | Fold Change of sorbitol/mannitol (metabolite sorbitol/mannitol, platform nLC): 0.009121 | Fold Change of squalene (metabolite squalene, platform GC): 0.07431 | Fold Change of succinic (metabolite succinic, platform nLC): −0.06141 | Fold Change of sucrose (metabolite sucrose, platform nLC): 0.1847 | Fold Change of sugar-phosphate (platform nLC): −0.04543 | Fold Change of sugar-phosphate (platform pLC): 0 | Fold Change of tetradecanoic acid (platform GC): −0.214 | Fold Change of tetradecanoic acid (platform nLC): 1.029 | Fold Change of thiamine (metabolite thiamine, platform pLC): 0 | Fold Change of threonine2 (metabolite threonine2, platform GC): 0.457 | Fold Change of threonine3 (metabolite threonine3, platform GC): 0.225 | Fold Change of threonine/homoserin (platform nLC): 0.04034 | Fold Change of threonine/homoserin (platform pLC): 0.1437 | Fold Change of thymine (platform nLC): 0 | Fold Change of thymine (platform pLC): 0 | Fold Change of tms glutamine3 (metabolite tms glutamine3, platform GC): 0.6709 | Fold Change of tms lysine4 (metabolite tms lysine4, platform GC): 0.05667 | Fold Change of tms tyrosine2 (metabolite tms tyrosine2, platform GC): 1.228 | Fold Change of tms tyrosine3 (metabolite tms tyrosine3, platform GC): 0.1911 | Fold Change of tryptophan (platform nLC): 4.676 | Fold Change of tryptophan (platform pLC): 0 | Fold Change of tyrosine (platform nLC): 0.0282 | Fold Change of tyrosine (platform pLC): 0.1008 | Fold Change of uracil (metabolite uracil, platform nLC): −0.2779 | Fold Change of uric acid (metabolite uric acid, platform pLC): 0 | Fold Change of uridine (metabolite uridine, platform nLC): 0.02855 | Fold Change of urocanic acid (platform nLC): 0 | Fold Change of urocanic acid (platform pLC): 0 | Fold Change of valine (platform GC): 0.345 | Fold Change of valine (platform nLC): 0.0195 | Fold Change of xanthosine(diH2O) (metabolite xanthosine(diH2O), platform pLC): 0 | Fold Change of xanthosineDiH2O (metabolite xanthosineDiH2O, platform nLC): 0 | Fold Change of zeatin (platform nLC): 0 | Fold Change of zeatin (platform pLC): 0
